Measurements published in patent US20260297060A1, “COMPOUNDS FOR THE DEGRADATION OF MUTANT BRAF” (C4 THERAPEUTICS, INC., priority 2023, published 2026).
Where two headings read alike, the source gives them in different places.

What was measured:
[1] = Example 9 pharmacokinetics assay for the PK and PD study Part I, II and III (plasma, tumor, liver); assay type: in vivo, BALB/c nude mice; settings: mouse, po, 10 mg/kg, p.o., single dose, ± SEM
Procedure: For the PK and PD study Part I, agents were administered to BALB/c nude mice bearing A375 human melanoma xenografts tumors. Dabrafenib, Compound 218 and Compound 157 were dosed via p.o. once on day 1. Dabrafenib was dosed at 100 mg/kg. Compound 218 and Compound 157 were dosed at 10 mg/kg.
For the PK and PD study Part II, agents were administered to BALB/c nude mice bearing A375 human melanoma xenografts tumors. Compound 133, Compound 144 and Compound 198 were dosed at 10 mg/kg via p.o. once on day 1.
For the PK and PD study Part III, agent was administered to BALB/c nude mice bearing A375 human melanoma xenografts tumors. Compound 204 were dosed at 10 mg/kg via p.o. once on day 1.
The plasma samples were collected at predetermined time points for PK analysis. The mice were euthanized at predetermined time points post the treatment. The blood samples were collected into the 1.5 mL Eppendorf tubes containing 15 μL of 0.5 M EDTA-K2. And then the anticoagulant blood samples were centrifuged at 2,500 g at 4° C. for 15 minutes. The plasma samples were separated into 2 aliquots. The 1st was used for PK analysis, and the 2nd served as backup. The samples were stored at −80° C. before bioanalysis.
The tumor samples were collected at predetermined time points for PK and WB analysis. The tumor was dissected out and split into 3 parts. The 1st part was used for PK analysis, the 2nd part was used for WB analysis and the last one served as backup for study. The samples were transferred into pre-labeled tubes and quickly froze in liquid nitrogen within 2 minutes after dissection. The samples were stored at −80° C. before bioanalysis.
Liver samples were collected at predetermined time points for PK analysis. The left lobe of the liver was dissected out and split into 2 parts. The 1st part was used for PK analysis and the 2nd part served as the backup for the study. The samples were transferred into pre-labeled tubes and quickly froze in liquid nitrogen within 2 minutes after dissection. The samples were stored at −80° C. before bioanalysis.
The harvested plasma, tumor and liver samples were processed for pharmacokinetics analysis by LC-MS/MS with a concentration range of 5.00-10,000 ng/mL for Compound 218, Compound 157 and Compound 133 in plasma, 0.500-1,000 ng/ml for Compound 218 in liver and tumor homogenate, 0.200-400 ng/mL for Compound 157, Dabrafenib and Compound 133 in liver and tumor homogenate, 0.500-1000 ng/mL for Dabrafenib and Compound 204 in plasma, 0.200-200 ng/mL for Compound 204 in liver and tumor homogenate, 20.0-20,000 ng/mL for Compound 144 and Compound 198 in plasma, 1.00-1,000 ng/mL for Compound 144 and Compound 198 in liver and tumor homogenate.

[2] = biological target: T1, human bile salt export pump (BSEP) efflux transporter (Homo sapiens, UniProt O95342); test: BSEP Vesicular Transport Inhibition Assay (IC50 determination); assay type: biochemical; settings: human BSEP (HEK293) vesicles, taurocholate 0.2 μM, 4 mM Mg-ATP, 10 concentrations, 1 replicate
T1 construct: purchased SOLVO Biotechnology Charles River Laboratories, Szeged, Hungary; host or cells: HEK293 (inside out membrane vesicles)
T1 sequence (O95342 whole entry): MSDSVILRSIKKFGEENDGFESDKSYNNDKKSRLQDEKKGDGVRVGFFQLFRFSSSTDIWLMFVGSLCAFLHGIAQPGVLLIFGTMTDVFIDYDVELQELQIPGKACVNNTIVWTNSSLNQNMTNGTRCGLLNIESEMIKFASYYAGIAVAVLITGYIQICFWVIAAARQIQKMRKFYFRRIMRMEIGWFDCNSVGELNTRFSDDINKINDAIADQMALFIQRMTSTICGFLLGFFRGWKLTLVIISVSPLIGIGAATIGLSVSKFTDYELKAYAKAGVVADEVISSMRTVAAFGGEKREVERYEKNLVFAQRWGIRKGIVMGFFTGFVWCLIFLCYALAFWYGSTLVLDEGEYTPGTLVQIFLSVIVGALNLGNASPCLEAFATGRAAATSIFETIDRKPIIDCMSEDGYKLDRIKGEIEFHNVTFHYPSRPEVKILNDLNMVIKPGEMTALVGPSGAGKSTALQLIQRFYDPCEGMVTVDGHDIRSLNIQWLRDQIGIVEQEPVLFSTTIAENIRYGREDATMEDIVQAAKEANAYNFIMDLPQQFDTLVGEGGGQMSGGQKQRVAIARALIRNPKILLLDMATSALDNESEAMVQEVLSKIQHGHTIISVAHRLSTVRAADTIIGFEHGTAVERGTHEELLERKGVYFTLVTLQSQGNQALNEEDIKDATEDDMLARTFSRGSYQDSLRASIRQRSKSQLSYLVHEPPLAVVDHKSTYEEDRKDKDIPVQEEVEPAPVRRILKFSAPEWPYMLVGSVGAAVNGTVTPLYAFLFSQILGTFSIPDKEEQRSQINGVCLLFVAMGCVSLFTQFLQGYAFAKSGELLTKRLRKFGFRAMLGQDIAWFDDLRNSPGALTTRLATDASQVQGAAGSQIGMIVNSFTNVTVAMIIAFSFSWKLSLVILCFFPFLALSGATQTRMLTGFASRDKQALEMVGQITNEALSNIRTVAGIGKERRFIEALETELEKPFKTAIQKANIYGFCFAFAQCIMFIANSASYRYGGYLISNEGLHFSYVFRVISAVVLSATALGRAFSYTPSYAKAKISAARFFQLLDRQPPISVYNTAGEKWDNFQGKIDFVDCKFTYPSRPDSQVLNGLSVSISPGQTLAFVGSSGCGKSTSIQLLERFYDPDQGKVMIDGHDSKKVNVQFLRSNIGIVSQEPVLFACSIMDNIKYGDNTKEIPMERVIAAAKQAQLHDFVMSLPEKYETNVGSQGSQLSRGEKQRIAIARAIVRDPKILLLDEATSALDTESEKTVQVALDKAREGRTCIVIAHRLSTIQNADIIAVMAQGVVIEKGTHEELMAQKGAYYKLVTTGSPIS
Procedure: The vesicular transport (VT) assays were performed using inside out membrane vesicles derived from HEK293 cells expressing the specified human bile salt export pump (BSEP) efflux transporter. The membrane vesicles were procured from SOLVO Biotechnology Charles River Laboratories, Szeged, Hungary.
The principle of the assay relies on measuring the accumulation of substrate into inside out vesicles containing the efflux transporter. By utilizing inside out vesicles, the ATP-dependent transport of substrate is directed into the vesicular lumen, where low permeability compounds are then essentially trapped.
For the IC50 screen inhibition assay, 10 concentrations of each compound were tested in the presence of ATP (active transport) in 1 replicate.
The solvent control (DMSO) was tested in the presence of ATP (active transport) and in the presence of AMP (background) in 8 replicates.
Vesicular transport inhibition assays were performed using the specific parameters for each transporter inhibition assay described in Table 53.
Table 54 specifies treatment groups and concentration of compounds, that were examined in the vesicular transport inhibition assay. Detailed data of IC50 screen inhibition assay are shown in Table 55 and detailed data of 1 concentration inhibition assay are shown in Table 56.
The vesicular transport inhibition assay was performed with 4 mM Mg-ATP. For the IC50 screen inhibition assay, 10 concentrations of each compound were tested in the presence of ATP in 1 replicate. For the 1 concentration inhibition assay, 1 concentration of each compound was tested in the presence of ATP (active transport) in 2 replicates. The solvent control (DMSO) was tested in the presence of 4 mM Mg-ATP (active transport) and in the presence of 4 mM AMP (background) in 8 replicates.
The BSEP membrane vesicle suspension was mixed with the ice-cold transport buffer, then the taurocholate probe substrate solution was added (Reaction mixture, 50 μL per well). The compounds were added to the reaction mixture at 1.5-times the final assay concentration. […].
Reaction mixtures and the start reagent (Mg-ATP or AMP in transport buffer) were pre-warmed separately for 15 minutes to reach the incubation temperature of 37° C. […]
The reaction was initiated by the addition of the start reagent (25 μL) to the reaction mixture (diluting the reaction mixture to the final concentration). […] After the 5-minute incubation at 37° C., the reaction was stopped by the addition of 250 μL ice-cold washing mix to each well. […]
The samples were then be transferred to a filter plate and washed with 200 μL cold washing mix5-times to remove any free compounds or taurocholate probe substrate. The amount of taurocholate probe substrate inside the filtered vesicles were determined by liquid scintillation counting. […]

[3] = liver, read-out: Mean Concentration in Liver
[4] = plasma, read-out: Mean Concentration in Plasma
[5] = tumor, read-out: Mean Concentration in Tumor

Compound	concentration at 6 h [1, 3] [ng/g]	concentration at 12 h [1, 3] [ng/g]	concentration at 1 h [1, 4] [ng/mL]	concentration at 6 h [1, 4] [ng/mL]	concentration at 12 h [1, 4] [ng/mL]	concentration at 24 h [1, 4] [ng/mL]	concentration at 1 h [1, 5] [ng/g]	concentration at 6 h [1, 5] [ng/g]	concentration at 12 h [1, 5] [ng/g]	concentration at 24 h [1, 5] [ng/g]	BSEP Inhibition/IC50 [2] [µM]	BSEP Inhibition/IC50 ([2]; in nM)
CO[C@@H]1CCN(S(=O)(=O)Nc2ccc(F)c(Oc3ccc4ncn([C@H]5COC6(CCN(C7CC8(C7)CN(c7cc9c(cc7F)c(N7CCC(=O)NC7=O)nn9C)C8)CC6)C5)c(=O)c4c3)c2C#N)C1 [Compound 144, (3R)-N-[2-cyano-3-[3-[(3R)-8-[2-[3-(2,4-dioxohexahydropyrimidin-1-yl)-5-fluoro-1-methyl-indazol-6-yl]-2-azaspiro[3.3]heptan-6-yl]-1-oxa-8-azaspiro[4.5]decan-3-yl]-4-oxo-quinazolin-6-yl]oxy-4-fluoro-phenyl]-3-methoxy-pyrrolidine-1-sulfonamide]	1890 ± 584	873 ± 234	11600 ± 2260	6220 ± 1880	1240 ± 395	143 ± 15.4	946 ± 172	1180 ± 406	616 ± 127	183 ± 45.4	7.94	
CCN(C)S(=O)(=O)Nc1ccc(F)c(Oc2ccc3ncn(C4CC5(C4)CN(C4CCC(c6cc7c(cc6F)c(N6CCC(=O)NC6=O)nn7C)CC4)C5)c(=O)c3c2)c1C#N (single isomer, unassigned) [Compound 204, 6-[2-cyano-3-[[ethyl(methyl)sulfamoyl]amino]-6-fluoro-phenoxy]-3-[2-[4-[3-(2,4-dioxohexahydropyrimidin-1-yl)-5-fluoro-1-methyl-indazol-6-yl]cyclohexyl]-2-azaspiro[3.3]heptan-6-yl]-4-oxo-quinazoline]	606 ± 73.4	291 ± 103	2070 ± 407	104 ± 6.18	32.9 ± 12.1		74.7 ± 16.5	112 ± 11	45 ± 9.93			>40000
CO[C@H]1CCN(S(=O)(=O)Nc2ccc(F)c(Oc3ccc4ncn([C@H]5COC6(CCN(C7CC8(C7)CN(c7cc9c(cc7F)c(N7CCC(=O)NC7=O)nn9C)C8)CC6)C5)c(=O)c4c3)c2C#N)C1 [Compound 157, (3S)-N-[2-cyano-3-[3-[(3R)-8-[2-[3-(2,4-dioxohexahydropyrimidin-1-yl)-5-fluoro-1-methyl-indazol-6-yl]-2-azaspiro[3.3]heptan-6-yl]-1-oxa-8-azaspiro[4.5]decan-3-yl]-4-oxo-quinazolin-6-yl]oxy-4-fluoro-phenyl]-3-methoxy-pyrrolidine-1-sulfonamide]	2000 ± 132	1320 ± 233	14700 ± 2000	14700 ± 1560	5420 ± 1400	161 ± 40.1	1460 ± 376	1990 ± 120	1470 ± 329	183 ± 137	8.83	
CCN(C)S(=O)(=O)Nc1ccc(F)c(Oc2ccc3ncn(C4CC5(CCN(C6CC7(CCN(c8cc9c(cc8F)c(N8CCC(=O)NC8=O)nn9C)CC7)C6)CC5)C4)c(=O)c3c2)c1C#N (stereo not drawn) [Compound 198, 6-[2-cyano-3-[[ethyl(methyl)sulfamoyl]amino]-6-fluoro-phenoxy]-3-[7-[7-[3-(2,4-dioxohexahydropyrimidin-1-yl)-5-fluoro-1-methyl-indazol-6-yl]-7-azaspiro[3.5]nonan-2-yl]-7-azaspiro[3.5]nonan-2-yl]-4-oxo-quinazoline]	2240 ± 416	1020 ± 177	2430 ± 91.7	2670 ± 117	1700 ± 172	573 ± 94.2	441 ± 38.8	1120 ± 28.5	776 ± 107	383 ± 128		15250
